Experimental data as given in the supplement of paper PMC5412046.
Structures can show the parent of a compound that is named as a salt.

Assays:
[1] = test system: SB.mhdgc-1; assay: area under the dose-response curve of % viability (trapezoidal, 11 doses) (% viability x log10 concentration); higher = less cytotoxic; details: SB.mhdgc-1 (hereditary c.1380delA CDH1 gastric cancer)
Outline: (§1)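 Patient-derived gastric cancer cells, hereditary or sporadic, were plated at 500 cells in 5 μL medium per well of a 1536-well plate and given 23 nL of compound in DMSO by pintool across 11 threefold dilutions. The top concentration was recorded for each compound. After 48 h, CellTiter-Glo was added for 30 min at room temperature and luminescence was read on a ViewLux. Values are viability normalised to DMSO, taken either at the highest concentration or as trapezoidal area under the curve.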

[2] = test system: SB.msgc-1; assay: as above; details: SB.msgc-1 (sporadic gastric cancer)
Outline: as §1

[3] = test system: SB.mhdgc-1; assay: viability at highest tested concentration (MAXR) relative to DMSO; higher = less cytotoxic; details: SB.mhdgc-1 (hereditary c.1380delA CDH1 gastric cancer)
Outline: as §1

[4] = test system: SB.msgc-1; assay: as above; details: SB.msgc-1 (sporadic gastric cancer)
Outline: as §1

SMILES	area under the dose-response curve [1]	area under the dose-response curve [2]	viability [3]	viability [4]
Cc1c(OCC(F)(F)F)ccnc1C[S+]([O-])c1nc2ccccc2[nH]1 (stereo not drawn) [Lansoprazole] (top concentration 46.0829 µM)	536	456	104%	71.5%
C[S+](=O)([O-])CCNCc1ccc(-c2ccc3ncnc(Nc4ccc(OCc5cccc(F)c5)c(Cl)c4)c3c2)o1 [Lapatinib] (top concentration 46.0829 µM)	483	245	3.18%	13.3%
CCN1C[C@]2(OC(=O)c3ccccc3NC(C)=O)CC[C@H](OC)[C@@]34[C@@H]2C[C@@H]([C@@H]13)[C@@]1(O)C[C@H](OC)[C@H]2C[C@@H]4[C@]1(O)[C@H]2OC [Lappaconitine] (top concentration 46.0829 µM)	562	496	117%	101%
CCN(C(=O)C/1=C(O)/C2=C(C=CC=C2Cl)N(C)C1=O)C3=CC=CC=C3 [Laquinimod] (top concentration 46.0829 µM)	559	489	112%	96.7%
C[S+](=O)([O-])c1cc(F)cc2c3c(n(Cc4ccc(Cl)cc4)c12)[C@@H](CC(=O)O)CC3 [Laropiprant] (top concentration 46.0829 µM)	555	553	93.2%	91.4%
Cc1ccc2c(c1)c1c(n2CCc2ccc(C)nc2)CCN(C)C1 [Latrepirdine hydrochloride] (top concentration 46.0829 µM)	454	487	57.1%	79.8%
Cc1oncc1C(=O)Nc1ccc(C(F)(F)F)cc1 [Leflunomide] (top concentration 46.0829 µM)	495	485	87.4%	79.3%
Nc1cccc2c1CN(C1CCC(=O)NC1=O)C2=O (stereo not drawn) [Lenalidomide] (top concentration 92.1659 µM)	478	481	120%	112%
COc1cc2nccc(Oc3ccc(NC(=O)NC4CC4)c(Cl)c3)c2cc1C(N)=O [Lenvatinib] (top concentration 46.0829 µM)	399	474	3.75%	48.1%
C[C@@]12O[C@@H](C[C@]1(O)CO)n1c3ccccc3c3c4c(c5c6ccccc6n2c5c31)CNC4=O [Lestaurtinib] (top concentration 46.0829 µM)	388	428	37.8%	31.1%
N#Cc1ccc(C(c2ccc(C#N)cc2)n2cncn2)cc1 [Letrozole] (top concentration 46.0829 µM)	501	532	88.3%	93%
CC[C@@H](C(N)=O)N1CCCC1=O [Levetiracetam] (top concentration 46.0829 µM)	545	584	83.4%	91.5%
N[C@@H](Cc1ccc(O)c(O)c1)C(=O)O [Levodopa] (top concentration 46.0829 µM)	583	571	118%	116%
C[C@H]1COC2=C3N1\C=C(C(O)=O)/C(=O)C3=CC(=C2N4CCN(C)CC4)F [Levofloxacin] (top concentration 46.0829 µM)	528	530	129%	105%
CC[C@]12CC[C@H]3[C@@H](CCC/4=C/C(=O)CC[C@H]34)[C@@H]1CC[C@@]2(O)C#C [Levonorgestrel] (top concentration 46.0829 µM)	472	512	98.5%	77.2%
C[C@@H]\1CC(=O)N\N=C1C2=CC=C(NN=C(C#N)C#N)C=C2 [Levosimendan] (top concentration 46.0829 µM)	476	294	3%	1.23%
CCN1CCCC1CNC(=O)c1cc([S+](N)(=O)[O-])ccc1OC (stereo not drawn) [Levosulpiride] (top concentration 46.0829 µM)	581	538	140%	116%
CCC[C@H](Nc1nc(-c2ccc(NC(=O)NCC)c(OC)c2)ncc1C)c1cccnc1 [Lexibulin hydrochloride] (top concentration 46.0829 µM)	257	289	39.8%	33.9%
CC1(C)Cc2c(-c3ccccc3)c(-c3ccc(Cl)cc3)c(CC(=O)O)n2C1 [Licofelone] (top concentration 46.0829 µM)	533	496	91.4%	62.5%
OCc1ccc(-c2nn(Cc3ccccc3)c3ccccc23)o1 [Lificiguat] (top concentration 46.0829 µM)	516	548	80.3%	84%
CC1(C)O[C@H]2CC(=O)OC[C@]23[C@H]2CC[C@@]4(C)[C@H](c5ccoc5)OC(=O)[C@H]5O[C@]54[C@]2(C)C(=O)C[C@@H]13 [Limonin] (top concentration 46.0829 µM)	598	570	120%	128%
CC#CCn1c(N2CCC[C@@H](N)C2)nc2c1c(=O)n(Cc1nc(C)c3ccccc3n1)c(=O)n2C [Linagliptin] (top concentration 46.0829 µM)	564	528	57.7%	77.9%
